Results on 2 compounds are retold here after patent publication US11253516B2, “N2,N4-diphenylpyrimidine-2,4-diamine derivative, method for preparing same, and pharmaceutical composition containing same as active ingredient for prevention or treatment of cancer” (Korea Research Institute of Chemical Technology, priority 2017, dated 2022).

The target in one data set is FLT3(ITD, D835V) (Homo sapiens, UniProt P36888, D835V/ITD). The data set can be described thus: KINOMEscan binding, FLT3(ITD, D835V). The procedure: (§1) The inhibitory activity on FLT kinase, such as wild-type FLT1, FLT3, FLT4, and FLT3 mutation forms, FLT3(D835H), FLT3(D835V), FLT3(D835Y), FLT3(ITD), FLT3(ITD,D835V), FLT3(ITD,F691L), FLT3(K663Q), FLT3(N841I), FLT3(R834Q) was measured.
(§2) FLT3 kinase inhibition was carried out by KINOMEscan method (DiscoverX Inc.). KINOMEscan method consists of the following processes. T7 bacteriophage labeled with FLT kinase was cultured by the infection to E. coli derived from BL21. After the infection of E. coli in the condition of 0.4 of MOI (multiplicity of infection), it was cultured for 90 to 150 minutes at 32° C. to lyse E. coli. The cell debris was removed by centrifugation and filtration, and the kinase protein present in the supernatant was secured. Additionally, the kinase protein was labeled with DNA for the qPCR measurement. The magnetic beads labeled with streptavidin were treated with the standard compound labeled with biotin and reacted for 30 minutes. The resulting beads were used as affinity beads for the measurement of a kinase activity. The binding reaction was initiated with mixing a kinase protein, the affinity beads bound with a ligand, and the compound. In this case, the used buffer solution was 20% SeaBlock, 0.17×PBS, 0.05% Tween 20, 6 mM DTT. […] The affinity of the compound to be tested was indirectly measured by Quantifying the eluted kinase by […].

A further data set has as its system Ba/F3 EGFR wt. cell line. The data set can be described thus: CellTiter-Glo cell viability, Ba/F3 EGFR wild-type. In kind it is cell-based. To be noted: 72 hours. The method, boiled down:
(§3)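 Ba/F3 cells expressing wild-type or del19 EGFR treated with compound at eight concentrations for 72 h; viability read as cellular ATP by CellTiter-Glo luminescence after 10 min shaking at ambient temperature. IC50 fitted from the eight-point curve.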
A general note: Cellular ATP, detected with luciferase, serves as a proxy for viable cell number.

In data set [1] the test system is Ba/F3 EGFR del19 cell line. The data set can be described thus: CellTiter-Glo cell viability, Ba/F3 EGFR del19. The conditions noted are these: 72 hours. In kind it is cell-based. The gist of the method: as §3
In a further data set the target is FLT3(D835Y) (Homo sapiens (Human), UniProt P36888, D835Y). The data set is described as follows: KINOMEscan binding, FLT3(D835Y). The procedure: as §1, §2
The subject of data set [2] is Ba/F3 Del19/T790M/C797S cell line. The data set is described as follows: Relative cell viability alone or in combination with cetuximab. Format: cell-based. To be noted: for viability at 0.03 µM: Mus musculus; for cell viability decreased than brigatinib in combination with cetuximab: combination with 10 μg cetuximab vs 30 nM brigatinib plus cetuximab. The source says: In order to confirm a cell activity on Ba/F3 Del19/T790M/C797S cell line when administering the compound according to the present invention in combination with a conventional drug, cetuximab to be used in single therapy or combination therapy with anticancer chemotherapy in metastatic colorectal cancer, metastatic squamous epithelium head and neck cancer and the like was used to evaluate the cell activity according to the combination administration.
Specifically, brigatinib was used as a control drug, and each of 30 nM of brigatinib, 30 nM of the compound of Example 10 according to the present invention, and 15 nM of the compound of Example 11 was administered to Ba/F3 Del19/T790M/C797S cell line in combination with 10 μg of cetuximab, which is a monoclonal antibody.

Data set [3] has as its system pERK, pAKT, pS6 (EGFR sub-signal) in Ba/F3 Del19/T790M/C797S cell line. The data set can be described thus: EGFR sub-signal activity (pERK, pAKT, pS6) alone or in combination with cetuximab. To be noted: for activity in pERK, pAKT, pS6 (EGFR sub-signal) when administered alone: 30, 100, 300, 1000 nM alone; for sub-signal activity when administered in combination with cetuximab: 30, 100, 300, 1000 nM plus 10 μg cetuximab; for sub-signal activity compared with brigatinib in combination with cetuximab: vs brigatinib plus cetuximab. In kind it is cell-based. The procedure: In addition, when administering each of brigatinib, the compounds of Examples 10 and 11 of the present invention in 30, 100, 300, 1000 nM alone or in combination with 10 μg of cetuximab, the sub-signal activity on a/F3 Del19/T790M/C797S cell line was evaluated and the results are shown in FIGS. 5 to 7.

Setting [4] is: BaF3, 30 nM Example 10 or 15 nM Example 11 alone vs 10 μg cetuximab alone, read-out: lower cell viability when administered alone than cetuximab.
[5] abbreviates: BaF3, 30 nM Example 10 or 15 nM Example 11 plus 10 μg cetuximab vs alone, read-out: cell viability decreased when administered in combination with cetuximab than when administered alone.

Read-outs that look alike come from different tables or passages of the source.

Consider `COc1cc(N2CCC(N3CCN(C)CC3)CC2)ccc1Nc1ncc(Cl)c(Nc2ccccc2NS(C)(=O)=O)n1` [Example 10, N-(2-((5-chloro-2-((2-methoxy-4-(4-(4-methylpiperazin-1-yl)piperidin-1-yl)phenyl)amino)pyrimidin-4-yl)amino)phenyl)methanesulfonamide], for which the Kd at FLT3(ITD, D835V) stood at 0.32 nM; at FLT3(D835Y), 4.2 nM. Moreover, the IC50 with Ba/F3 EGFR wt. cell line was 1000 nM; in data set [1] it was 180 nM. Further, the viability at 0.03 µM was no less than 30% in data set [2] (setting [4]) and no less than 50% in data set [2] (setting [5]). The “cell viability decreased than brigatinib in combination with cetuximab” value in data set [2] is reported as “at least 20%”. Moreover, in data set [3], the “activity in pERK, pAKT, pS6 (EGFR sub-signal) when administered alone” value is “concentration-dependent activity”. The “sub-signal activity when administered in combination with cetuximab” value in data set [3] is recorded as “superior activity”. The “sub-signal activity compared with brigatinib in combination with cetuximab” value in data set [3] is on record as “superior activity”.

Turning to `COc1cc(N2CCC(N(C)C)CC2)ccc1Nc1ncc(Cl)c(Nc2ccccc2NS(C)(=O)=O)n1` [Example 11, N-(2-((5-chloro-2-((4-(4-(dimethylamino)piperidin-1-yl)-2-methoxyphenyl)amino)pyrimidin-4-yl)amino)phenyl)methanesulfonamide], the Kd on FLT3(ITD, D835V) was 0.16 nM; at FLT3(D835Y), 1.5 nM. The 50% inhibitory concentration (IC50) in the data set with Ba/F3 EGFR wt. cell line came to 340 nM; in data set [1] it was 4.7 nM. The viability at 0.03 µM is no less than 30% in data set [2] (setting [4]) and no less than 50% in data set [2] (setting [5]). In data set [2], the “cell viability decreased than brigatinib in combination with cetuximab” value is on record as “at least 20%”. Further, in data set [3], the “activity in pERK, pAKT, pS6 (EGFR sub-signal) when administered alone” value is recorded as “concentration-dependent activity”. Further, in data set [3], the “sub-signal activity when administered in combination with cetuximab” value is given as “superior activity”. In addition, the “sub-signal activity compared with brigatinib in combination with cetuximab” value in data set [3] is given as “superior activity”.

Broadly, the Kd is the equilibrium constant for the complex coming apart. Low readings indicate tighter binding, high ones weaker binding. Usually IC50 stands for the concentration that gives 50% inhibition. Lower therefore signals greater potency in that assay. As a reminder, the viability is the share of living cells, or the viability signal relative to a control.
